Compound	melting point
Cc1cc(-c2cccc(C3=Nc4cc(N5CCOCC5)c(C(F)(F)F)cc4NC(=O)C3)c2)on1 [Example 3, 4-[3-(3-Methyl-isoxazol-5-yl)-phenyl]-7-morpholin-4-yl-8-trifluoromethyl-1,3-dihydro-benzo[b][1,4]diazepin-2-one]	170 °C
N#Cc1cccc(C2=Nc3ccc(-n4cc(C#N)c(-c5ccccc5Cl)c4)cc3NC(=O)C2)c1 [Example 5, 4-(2-Chloro-phenyl)-1-[2-(3-cyano-phenyl)-4-oxo-4,5-dihydro-3H-benzo[b][1,4]diazepin-7-yl]-1H-pyrrole-3-carbonitrile]	252 °C (dec.)
N#Cc1cccc(C2=Nc3ccc(-n4cc(C#N)c(-c5ccccc5)c4)cc3NC(=O)C2)c1 [Example 6, 1-[2-(3-Cyano-phenyl)-4-oxo-4,5-dihydro-3H-benzo[b][1,4]diazepin-7-yl]-4-phenyl-1H-pyrrole-3-carbonitrile]	274 °C (dec.)
O=C1CC(c2cccc(I)c2)=Nc2ccc(-n3cccc3)cc2N1 [Example 7, 4-(3-Iodo-phenyl)-8-pyrrol-1-yl-1,3-dihydro-benzo[b][1,4]diazepin-2-one]	215 to 217 °C (dec.)
NC(=O)c1cccc(C2=Nc3ccc(-n4cccc4)cc3NC(=O)C2)c1 [Example 8, 3-(4-oxo-7-Pyrrol-1-yl-4,5-dihydro-3H-benzo[b][1,4]diazepin-2-yl)-benzamide]	238 to 239 °C (dec.)
COCCOc1cc2c(cc1-n1cccc1)NC(=O)CC(c1cccc(C#N)c1)=N2 [Example 10, 3-[8-(2-Methoxy-ethoxy)-4-oxo-7-pyrrol-1-yl-4,5-dihydro-3H-benzo[b][1,4]diazepin-2-yl]-benzonitrile]	189 to 195 °C
COC(=O)c1cccn1-c1ccc2c(c1)NC(=O)CC(c1cccc(C#N)c1)=N2 [Example 15, 1-[2-(3-Cyano-phenyl)-4-oxo-4,5-dihydro-3H-benzo[b][1,4]diazepin-7-yl]-1H-pyrrole-2-carboxylic Acid Methyl Ester]	> 207 °C (dec.)
CCOC(=O)c1csc(-c2cccc(C3=Nc4ccc(-n5cccc5)cc4NC(=O)C3)c2)n1 [Example 19, 2-[3-(4-oxo-7-Pyrrol-1-yl-4,5-dihydro-3H-benzo[b][1,4]diazepin-2-yl)-phenyl]-thiazole-4-carboxylic Acid Ethyl Ester]	198 to 201 °C
O=C1CC(c2cccc(-c3ocnc3C(=O)NCCO)c2)=Nc2ccc(-n3cccc3)cc2N1 [Example 24, 5-[3-(4-oxo-7-Pyrrol-1-yl-4,5-dihydro-3H-benzo[b][1,4]diazepin-2-yl)-phenyl]-oxazole-4-carboxylic Acid (2-Hydroxy-ethyl)-amide]	228 to 230 °C
O=C1CC(c2cccc(-c3nc(CO)co3)c2)=Nc2ccc(-n3cccc3)cc2N1 [Example 26, 4-[3-(4-Hydroxymethyl-oxazol-2-yl)-phenyl]-8-pyrrol-1-yl-1,3-dihydro-benzo[b][1,4]diazepin-2-one]	240 to 242 °C
CCOC(=O)c1nc(-c2cccc(C3=Nc4ccc(-n5cccc5)cc4NC(=O)C3)c2)cs1 [Example 28, 4-[3-(4-oxo-7-Pyrrol-1-yl-4,5-dihydro-3H-benzo[b][1,4]diazepin-2-yl)-phenyl]-thiazole-2-carboxylic Acid Ethyl Ester]	213 to 215 °C
Cc1cc(-c2cccc(C3=Nc4ccc(-n5cccc5)cc4NC(=O)C3)c2)on1 [Example 29, 4-[3-(3-Methyl-isoxazol-5-yl)-phenyl]-8-pyrrol-1-yl-1,3-dihydro-benzo[b][1,4]diazepin-2-one]	248 to 250 °C
NC(=O)c1nc(-c2cccc(C3=Nc4ccc(-n5cccc5)cc4NC(=O)C3)c2)cs1 [Example 30, 4-[3-(4-oxo-7-Pyrrol-1-yl-4,5-dihydro-3H-benzo[b][1,4]diazepin-2-yl)-phenyl]-thiazole-2-carboxylic Acid Amide]	267 to 269 °C
O=C1CC(c2cccc(-c3csc(C(=O)NCCO)n3)c2)=Nc2ccc(-n3cccc3)cc2N1 [Example 32, 4-[3-(4-oxo-7-Pyrrol-1-yl-4,5-dihydro-3H-benzo[b][1,4]diazepin-2-yl)-phenyl]-thiazole-2-carboxylic Acid (2-Hydroxy-ethyl)-amide]	236 to 238 °C
O=C1CC(c2cccc(-c3csc(CO)n3)c2)=Nc2ccc(-n3cccc3)cc2N1 [Example 33, 4-[3-(2-Hydroxymethyl-thiazol-4-yl)-phenyl]-8-pyrrol-1-yl-1,3-dihydro-benzo[b][1,4]diazepin-2-one]	185 to 190 °C (dec.)
N#CCc1cc2c(cc1I)NC(=O)CC(c1cccc(-n3ccnc3)c1)=N2 [Example 37, [4-(3-Imidazol-1-yl-phenyl)-8-iodo-2-oxo-2,3-dihydro-1H-benzo[b][1,4]diazepin-7-yl]-acetonitrile]	243 to 245 °C
O=C1CC(c2cccc(-c3cc(CO)no3)c2)=Nc2cc(N3CCOCC3)c(C(F)(F)F)cc2N1 [Example 39, 4-[3-(3-Hydroxymethyl-isoxazol-5-yl)-phenyl]-7-morpholin-4-yl-8-trifluoromethyl-1,3-dihydro-benzo[b][1,4]diazepin-2-one]	196 °C

Compound	melting point
CN(C)Cc1cnnn1-c1cccc(C2=Nc3cc(N4CCOCC4)c(C(F)(F)F)cc3NC(=O)C2)c1 [Example 40, 4-[3-(5-Dimethylaminomethyl-[1,2,3]triazol-1-yl)-phenyl]-7-morpholin-4-yl-8-trifluoromethyl-1,3-dihydro-benzo[b][1,4]diazepin-2-one]	180 °C
Cc1cc(-c2cccc(C3=Nc4cc(N5CCSCC5)c(C(F)(F)F)cc4NC(=O)C3)c2)on1 [Example 41, 4-[3-(3-Methyl-isoxazol-5-yl)-phenyl]-7-thiomorpholin-4-yl-8-trifluoromethyl-1,3-dihydro-benzo[b][1,4]diazepin-2-one]	230 to 233 °C
COc1cc2c(cc1C(F)(F)F)NC(=O)CC(c1ccnc(C#N)c1)=N2 [Example 44, 4-(8-Methoxy-4-oxo-7-trifluoromethyl-4,5-dihydro-3H-benzo[b][1,4]diazepin-2-yl)-pyridine-2-carbonitrile]	227 °C
COc1cc2c(cc1C(F)(F)F)NC(=O)CC(c1cccc(-c3cc(C)no3)c1)=N2 [Example 45, 7-Methoxy-4-[3-(3-methyl-isoxazol-5-yl)-phenyl]-8-trifluoromethyl-1,3-dihydro-benzo[b][1,4]diazepin-2-one]	225 °C
O=C1CC(c2cccc(-n3cccn3)c2)=Nc2cc(N3CCOCC3)c(C(F)(F)F)cc2N1 [Example 49, 7-Morpholin-4-yl-4-(3-pyrazol-1-yl-phenyl)-8-trifluoromethyl-1,3-dihydro-benzo[b][1,4]diazepin-2-one]	166 °C
O=C1CC(c2cccc(-n3cnnc3)c2)=Nc2cc(N3CCOCC3)c(C(F)(F)F)cc2N1 [Example 50, 7-Morpholin-4-yl-4-(3-[1,2,4]triazol-4-yl-phenyl)-8-trifluoromethyl-1,3-dihydro-benzo[b][1,4]diazepin-2-one]	233 to 236 °C
O=C1CC(c2cccc(-n3nncc3CO)c2)=Nc2cc(F)c(C(F)(F)F)cc2N1 [Example 51, 7-Fluoro-4-[3-(5-hydroxymethyl-[1,2,3]triazol-1-yl)-phenyl]-8-trifluoromethyl-1,3-dihydro-benzo[b][1,4]diazepin-2-one]	197 to 199 °C
CCOc1cc2c(cc1C(F)(F)F)NC(=O)CC(c1cccc(-n3nncc3CNC3CC3)c1)=N2 [Example 54, 4-[3-(5-Cyclopropylaminomethyl-[1,2,3]triazol-1-yl)-phenyl]-7-ethoxy-8-trifluoromethyl-1,3-dihydro-benzo[b][1,4]diazepin-2-one]	80 °C
CCOc1cc2c(cc1C(F)(F)F)NC(=O)CC(c1cccc(-n3ccnn3)c1)=N2 [Example 56, 7-Ethoxy-4-(3-[1,2,3]triazol-1-yl-phenyl)-8-trifluoromethyl-1,3-dihydro-benzo[b][1,4]diazepin-2-one]	215 °C
N#Cc1cccc(C2=Nc3cc(N4CCOCC4)c(C#N)cc3NC(=O)C2)c1 [Example 59, 2-(3-Cyano-phenyl)-8-morpholin-4-yl-4-oxo-4,5-dihydro-3H-benzo[b][1,4]diazepine-7-carbonitrile]	259 °C
N#Cc1cc2c(cc1N1CCOCC1)N=C(c1cccc(-n3nncc3CO)c1)CC(=O)N2 [Example 60, 2-[3-(5-Hydroxymethyl-[1,2,3]triazol-1-yl)-phenyl]-8-morpholin-4-yl-4-oxo-4,5-dihydro-3H-benzo[b][1,4]diazepine-7-carbonitrile]	180 °C
Cc1cc(-c2cccc(C3=Nc4cc(N5CCOCC5)c(C#N)cc4NC(=O)C3)c2)on1 [Example 61, 2-[3-(3-Methyl-isoxazol-5-yl)-phenyl]-8-morpholin-4-yl-4-oxo-4,5-dihydro-3H-benzo[b][1,4]diazepine-7-carbonitrile]	252 °C
O=C1CC(c2cccc(-n3nncc3CO)c2)=Nc2cc(Cl)c(C(F)(F)F)cc2N1 [Example 63, 7-Chloro-4-[3-(5-hydroxymethyl-[1,2,3]triazol-1-yl)-phenyl]-8-trifluoromethyl-1,3-dihydro-benzo[b][1,4]diazepin-2-one]	198 °C
O=C1CC(c2cccc(-n3ncnc3CO)c2)=Nc2cc(Cl)c(C(F)(F)F)cc2N1 [Example 64, 7-Chloro-4-[3-(5-hydroxymethyl-[1,2,4]triazol-1-yl)-phenyl]-8-trifluoromethyl-1,3-dihydro-benzo[b][1,4]diazepin-2-one]	212 °C
Cc1cc(-c2cccc(C3=Nc4cc(Cl)c(C(F)(F)F)cc4NC(=O)C3)c2)on1 [Example 65, 7-Chloro-4-[3-(3-methyl-isoxazol-5-yl)-phenyl]-8-trifluoromethyl-1,3-dihydro-benzo[b][1,4]diazepin-2-one]	252 °C
O=C1CC(c2cccc(-n3ncnc3CNC3CC3)c2)=Nc2cc(Cl)c(C(F)(F)F)cc2N1 [Example 66, 7-Chloro-4-[3-(5-cyclopropylaminomethyl-[1,2,4]triazol-1-yl)-phenyl]-8-trifluoromethyl-1,3-dihydro-benzo[b][1,4]diazepin-2-one]	191 °C

— patent publication US6548495B2, “Dihydro-benzo [B] [1,4] diazepin-2-one derivatives” (Hoffmann-La Roche Inc., priority 2002, dated 2003)
